Patent US8207176B2 (Glaxo Group Limited, priority 2005, dated 2012)

How the values were obtained:
[1] = tested on: influx of neutrophils to the lung in LPS-challenged rats; test: Rat LPS neutrophilia model; format: in vivo; settings: intratracheal, LPS aerosol 100 ug/ml 15 min, lavage 4 hours later, in at least one of the range of conditions tested, significant p<0.05, nonsignificant p>0.05
In short: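 Compound was given intratracheally (200 ul, suspension or dry powder) 15 min–24 hours before a 15 min aerosol of LPS (100 ug/ml). Bronchoalveolar lavage was taken 4 hours after challenge for differential cell counts. Values are % inhibition of neutrophils versus no-compound controls at a given concentration and pretreat time.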

[2] = tested on: TGF-β-induced increases in fibronectin and thrombospondin; settings: cited from earlier work
[3] = tested on: synthesis of IL-6, IL-8, GM-CSF, RANTES and COX-2; settings: a number of different cell types; cited from earlier work
[4] = molecular target: T1, Recombinant human p38α (MKK6-activated) (Homo sapiens, UniProt Q16539); test: Time-resolved fluorescence resonance energy transfer (TR-FRET) kinase assay (standard or low volume); format: biochemical; set-up: key: Compounds are considered active in this assay if they demonstrate a pIC50 of greater than 4.6 up to about a pIC50 of greater than 10.0; settings: MKK6-activated p38α 100 pM, GST-ATF2 400 nM, 120 minutes at room temperature; either assay format
T1 construct: His; made in house
Protocol: It is noted that there are two assay formats shown above for the Fluorescence anisotropy kinase binding assay. The only difference between these two assays is the volume used and the plate type. […] The results described herein may have been performed in either assay format and are not differentiated as to which. […] TR-FRET Assay Time-Resolved Fluorescence Resonance Energy Transfer Kinase Standard Assay Recombinant human p38α was expressed as a His-tagged protein. To activate this protein, 3 μM unactivated p38α was incubated in 200 mM Hepes pH 7.4, 625 mM NaCl, 1 mM DTT with 27 nM active MKK6 (Upstate), 1 mM ATP and 10 mM MgCl2 The activity of the MKK6-activated p38α was assessed using a time-resolved fluorescence resonance energy transfer (TR-FRET) assay. Biotinylated-GST-ATF2 (residues 19-96, 400 nM final), ATP ([…]) and MgCl2 (5 mM final) in assay buffer (40 mM HEPES pH 7.4, 1 mM DTT) were added to wells containing 1 ul of various concentrations of compound or DMSO vehicle (3% final) in NUNC 384 well black plate. The reaction was initiated by the addition of MKK6-activated p38 (100 pM final) to give a total volume of 30 ul. The reaction was incubated for 120 minutes at room temperature, then terminated by the addition of 15 μl of 100 mM EDTA pH 7.4. Detection reagent (15 μl) in buffer (100 mM HEPES pH 7.4, 150 mM NaCl, 0.1% w/v BSA, 1 mM DTT) containing antiphosphothreonine-ATF2-71 polyclonal antibody (Cell Signalling Technology, Beverly Mass., USA) labelled with W-1024 europium chelate (Wallac OY, Turku, Finland), and APC-labelled streptavidin (Prozyme, San Leandro, Calif., USA) was added and the reaction was further incubated for 60 minutes at room temperature. The degree of phosphorylation of GST-ATF2 was measured using a Packard Discovery plate reader (Perkin-Elmer Life Sciences, Pangbourne, UK) as a ratio of specific 665 nm energy transfer signal to reference europium 620 nm signal. Time-Resolved Fluorescence Resonance Energy Transfer Kinase Low Volume Assay Recombinant human p38α was expressed as a His-tagged protein. To activate this protein, 3 μM unactivated p38α was incubated in 200 mM Hepes pH7.4, 625 mM NaCl, 1 mM DTT with 27 nM active MKK6 (Upstate), 1 mM ATP and 10 mM MgCl2 The activity of the MKK6-activated p38α was assessed using a time-resolved fluorescence resonance energy transfer (TR-FRET) assay. Biotinylated-GST-ATF2 (residues 19-96, 400 nM final), ATP (125 μM final) and MgCl2 ([…]) in assay buffer (40 mM HEPES pH 7.4, 1 mM DTT) were added to wells containing 0.1 μl of various concentrations of compound or DMSO vehicle (1.7% final) in Greiner low volume 384 well black plate. The reaction was initiated by the addition of MKK6-activated p38α (100 pM final) to give a total volume of 6 μl. The reaction was incubated for 120 minutes at room temperature, then terminated by the addition of 3 μl of detection reagent in buffer (100 mM HEPES pH 7.4, 150 mM NaCl, 0.1% w/v BSA, 1 mM DTT, 100 mM EDTA) containing antiphosphothreonine-ATF2-71 polyclonal antibody (Cell Signalling Technology, Beverly Mass., USA) labelled with W-1024 europium chelate (Wallac OY, Turku, Finland), and APC-labelled streptavidin (Prozyme, San Leandro, Calif., USA). The reaction was further incubated for 60 minutes at room temperature. The degree of phosphorylation of GST-ATF2 was measured using a BMG Rubystar plate reader (BMG, UK) as a ratio of specific 665 nm energy transfer signal to reference europium 620 nm signal. It is noted that there are two assay formats shown above for the Time-resolved fluorescence resonance energy transfer kinase assay. The only difference between these two assays is the volume used and the plate type. […] The results described herein may have been performed in either assay format and are not differentiated as to which. […] For purposes herein the HTRF assay and the Fluorescence anisotropy kinase binding assay: […]

T1 sequence (Q16539 whole entry): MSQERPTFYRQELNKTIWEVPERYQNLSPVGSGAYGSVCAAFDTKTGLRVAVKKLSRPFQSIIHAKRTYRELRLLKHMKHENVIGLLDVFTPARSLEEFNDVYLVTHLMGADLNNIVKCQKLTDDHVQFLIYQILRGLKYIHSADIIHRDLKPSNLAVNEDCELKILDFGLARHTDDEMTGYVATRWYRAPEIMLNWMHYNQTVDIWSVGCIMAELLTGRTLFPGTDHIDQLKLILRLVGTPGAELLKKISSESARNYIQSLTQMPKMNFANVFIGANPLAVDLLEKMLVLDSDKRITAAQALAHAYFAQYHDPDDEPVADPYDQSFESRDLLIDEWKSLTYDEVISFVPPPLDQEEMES

SMILES	inhibition of neutrophilia (neutrophil levels in lung lavage relative to no compound controls) [1]	melting point [°C]	also measured
CCCNC(=O)c1ccc(C)c(-c2nc(NCCN(C)C)nc3c2ccc(=O)n3-c2c(F)cccc2F)c1 [Example 105, 3-(8-(2,6-difluorophenyl)-2-{[2-(dimethylamino)ethyl]amino}-7-oxo-7,8-dihydropyrido[2,3-d]pyrimidin-4-yl)-4-methyl-N-propylbenzamide]	statistically significant inhibition	139 to 142	–
COc1nccc(-c2c(-c3ccc(F)cc3)ncn2C2CCNCC2)n1 [SB-242235]	–	–	effect on TGF-β-induced increases in fibronectin and thrombospondin [2]: inhibited
Cc1ccc(C(=O)NC2CC2)cc1-c1nc(NC2CC(C)(C)NC(C)(C)C2)nc2c1ccc(=O)n2-c1c(F)cccc1F [21(c)]	–	326.3 to 327.9	–
Fc1ccc(-c2nc3n(c2-c2ccncc2)CCS3)cc1 [SK&F 86002]	–	–	decreasing the synthesis of pro-inflammatory proteins including IL-6, IL-8, GM-CSF, RANTES and COX-2 [3]: effective
C[S+]([O-])c1ccc(-c2nc(-c3ccncc3)c(-c3ccc(F)cc3)[nH]2)cc1 (centres unmarked) [SB-203580]	–	–	decreasing the synthesis of pro-inflammatory proteins including IL-6, IL-8, GM-CSF, RANTES and COX-2 [3]: effective
Cc1ccc(NC(=O)c2ccsc2)cc1-c1nc(N2CCC(N)CC2)nc2c1ccc(=O)n2-c1c(F)cccc1F [Example 32, N-{3-[2-(4-amino-1-piperidinyl)-8-(2,6-difluorophenyl)-7-oxo-7,8-dihydropyrido[2,3-d]pyrimidin-4-yl]-4-methylphenyl}-3-thiophenecarboxamide]	statistically nonsignificant inhibition	183.8 to 187.9	–
Cc1ccc(C(=O)NC2CC2)cc1-c1nc(NCCN(C)C)nc2c1ccc(=O)n2-c1c(F)cccc1F [Example 25]	statistically nonsignificant inhibition	214.7 to 217.5	–
Cc1c(F)cc(C(=O)NC2CC2)cc1-c1nc(NC(CO)CO)nc2c1ccc(=O)n2-c1c(F)cccc1F [18(e)]	–	214.2 to 217.5	pIC50, reported as active [4]: active
CCCNC(=O)c1ccc(C)c(-c2nc(N(C)CCCN(C)C)nc3c2ccc(=O)n3-c2c(F)cccc2F)c1 [Example 104, 3-{8-(2,6-difluorophenyl)-2-[[3-(dimethylamino)propyl](methyl)amino]-7-oxo-7,8-dihydropyrido[2,3-d]pyrimidin-4-yl}-4-methyl-N-propylbenzamide]	statistically significant inhibition	104 to 109	–
CCCNCCNc1nc(-c2cc(C(=O)NC3CC3)ccc2C)c2ccc(=O)n(-c3c(F)cccc3F)c2n1 [Example 24, N-cyclopropyl-3-(8-(2,6-difluorophenyl)-7-oxo-2-{[2-(propylamino)ethyl]amino}-7,8-dihydropyrido[2,3-d]pyrimidin-4-yl)-4-methylbenzamide]	statistically nonsignificant inhibition	120 to 134	–
CCCNC(=O)c1ccc(C)c(-c2nc(NCCN(C)C(=O)OC(C)(C)C)nc3c2ccc(=O)n3-c2c(F)cccc2F)c1 [Example 106, 1,1-dimethylethyl {2-[(8-(2,6-difluorophenyl)-4-{2-methyl-5-[(propylamino)carbonyl]phenyl}-7-oxo-7,8-dihydro-pyrido[2,3-d]pyrimidin-2-yl)amino]ethyl}methylcarbamate]	–	115 to 118	–
